Test systems include CAKI-1 renal; HL-60(TB) leukemia; LXFL 529 NSCLC; M19-MEL melanoma; SK-MEL-5 melanoma; SR leukemia; UACC-62 melanoma; MCF7 breast; MDA-MB-231 breast; OVCAR-5 ovarian.
Common to all, as to test: NCI anticancer screen, dose series, 48 h

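Where inhibition never reached the appropriate level, the endpoint shown equals the highest concentration tested. Otherwise, values were interpolated linearly from a five-concentration, 48-hour dose response in 96-well plates. The concentration for 50% growth inhibition is given as GI50. TGI: concentration producing complete growth inhibition.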 A value given as a limit tells only on which side of the number the result lay.

`OCCN(CCO)c1cccc(N(CCO)CCO)c1`: the TGI in the test with CAKI-1 renal, in the test on HL-60(TB) leukemia, with LXFL 529 NSCLC, in the test on M19-MEL melanoma, in the test with SK-MEL-5 melanoma and with SR leukemia was > 100 µM throughout. Moreover, the TGI in the test with UACC-62 melanoma is > 100 µM.

Consider `CNS(=O)(=O)NN(C)S(=O)(=O)c1ccc(Cl)cc1`, for which the TGI in the test with CAKI-1 renal, with HL-60(TB) leukemia, with LXFL 529 NSCLC, in the test with M19-MEL melanoma, with SK-MEL-5 melanoma and in the test on SR leukemia was > 100 µM throughout. Moreover, in the test with UACC-62 melanoma, the TGI is > 100 µM.

As for `COc1ccc(Nc2ccnc(NCCNc3ccnc4cc(Cl)ccc34)n2)cc1`, the GI50 in the test on CAKI-1 renal is 1.73 µM; in the test on HL-60(TB) leukemia it was 2.48 µM; in the test with MCF7 breast, 1.53 µM; in the test on MDA-MB-231 breast it was 2.01 µM; in the test with OVCAR-5 ovarian, 1.29 µM; in the test with SK-MEL-5 melanoma it was 1.55 µM. Also, the GI50 in the test on SR leukemia is 2.12 µM; in the test on UACC-62 melanoma, 1.8 µM. Further, the TGI stood at 4.57 µM with CAKI-1 renal; 7.06 µM in the test with HL-60(TB) leukemia; 5.2 µM in the test with MCF7 breast; 6.71 µM in the test with MDA-MB-231 breast; 7.13 µM in the test on OVCAR-5 ovarian; 2.95 µM in the test with SK-MEL-5 melanoma. The TGI with SR leukemia was 7.51 µM; in the test with UACC-62 melanoma, 3.62 µM.

With `CC/C=C\C/C=C\C[C@H](O)C/C=C1/C(=O)C=C[C@H]1C/C=C\CCC(=O)OC`, the GI50 is 6.01 µM in the test with CAKI-1 renal; 2.49 µM with HL-60(TB) leukemia; 2.43 µM in the test on MCF7 breast; 3.5 µM in the test with MDA-MB-231 breast; 5 µM in the test on OVCAR-5 ovarian; 1.94 µM in the test with SK-MEL-5 melanoma. The GI50 with SR leukemia was 1.61 µM; with UACC-62 melanoma it was 1.79 µM. Moreover, the TGI in the test with CAKI-1 renal is > 8.25 µM; in the test with HL-60(TB) leukemia, > 8.25 µM; with MCF7 breast, > 8.25 µM; in the test with MDA-MB-231 breast, > 8.25 µM; with OVCAR-5 ovarian, > 8.25 µM; with SK-MEL-5 melanoma it was 6.21 µM. For the same compound, the TGI in the test with SR leukemia is > 8.25 µM; with UACC-62 melanoma, 7.16 µM.

Regarding `Nc1nc2c(c3ncccc13)C(c1ccc(Cl)c(Cl)c1)Cc1ncccc1-2` (stereo not given), the GI50 in the test on CAKI-1 renal was 3.9 µM; in the test on HL-60(TB) leukemia, 3.09 µM; in the test on MCF7 breast, 2.99 µM; in the test on MDA-MB-231 breast, 4.05 µM; in the test with OVCAR-5 ovarian it was 6.51 µM; in the test with SK-MEL-5 melanoma it was 3.99 µM. The GI50 in the test on SR leukemia is 2.46 µM; in the test with UACC-62 melanoma it was 2.28 µM. Moreover, the TGI with CAKI-1 renal was found to be 20.5 µM; with HL-60(TB) leukemia, 16.2 µM; in the test on MCF7 breast it was 14.2 µM; with MDA-MB-231 breast, 17.1 µM; with OVCAR-5 ovarian, 24.2 µM; in the test on SK-MEL-5 melanoma it was 14.8 µM. Moreover, the TGI came to 13 µM in the test with SR leukemia and 12.5 µM in the test on UACC-62 melanoma.

Turning to `COc1cc([C@@H]2c3cc4c(cc3C(Br)[C@H]3COC(=O)[C@H]23)OCO4)cc(OC)c1OC` (stereo not given in full), the GI50 in the test with CAKI-1 renal is 0.117 µM; in the test on HL-60(TB) leukemia it was 0.223 µM; in the test on MCF7 breast, 0.168 µM; with MDA-MB-231 breast it was 0.296 µM; in the test on OVCAR-5 ovarian, 0.552 µM; in the test with SK-MEL-5 melanoma, 0.209 µM. Also, the GI50 with SR leukemia is 0.117 µM; in the test with UACC-62 melanoma, 0.187 µM. The TGI is > 48.4 µM in the test with CAKI-1 renal; > 100 µM in the test with MCF7 breast; > 100 µM in the test with OVCAR-5 ovarian; 0.488 µM in the test on SK-MEL-5 melanoma; > 100 µM in the test on SR leukemia; > 100 µM in the test on UACC-62 melanoma.

Regarding `CCN(CC)c1ccc(N=C2C=C(C(=O)Nc3ccc(S(C)(=O)=O)cc3)C(=O)c3ccccc32)c(C)c1`, the GI50 with CAKI-1 renal is 81 µM; with HL-60(TB) leukemia, 14 µM; with MCF7 breast, > 100 µM; in the test on MDA-MB-231 breast, 4.53 µM; in the test with OVCAR-5 ovarian it was > 100 µM; in the test on SK-MEL-5 melanoma, 5.84 µM. Moreover, the GI50 in the test on SR leukemia was 2.08 µM; with UACC-62 melanoma, 0.734 µM. The TGI in the test with CAKI-1 renal, in the test with HL-60(TB) leukemia, in the test on MCF7 breast, in the test with MDA-MB-231 breast, with OVCAR-5 ovarian and in the test with SK-MEL-5 melanoma was > 100 µM in each case. The TGI in the test with SR leukemia and in the test with UACC-62 melanoma was > 100 µM each time.

Consider `Cc1ccccc1S(=O)(=O)N1[C@H](c2ccc(Cl)cc2)C(C(=O)N[C@@H](Cc2ccccc2)C(N)=O)=C[C@@H]1C(C)(C)C`, for which the GI50 was 5.68 µM in the test on CAKI-1 renal; 9.6 µM in the test with HL-60(TB) leukemia; 2.17 µM in the test with MCF7 breast; 6.94 µM in the test with MDA-MB-231 breast; 5.62 µM in the test on OVCAR-5 ovarian; 6.8 µM with SK-MEL-5 melanoma. Further, the GI50 with SR leukemia was 3.91 µM; with UACC-62 melanoma, 5.76 µM. Further, the TGI was found to be 16.6 µM in the test on CAKI-1 renal; 31.2 µM in the test on HL-60(TB) leukemia; 9.67 µM in the test on MCF7 breast; 14.3 µM in the test with MDA-MB-231 breast; 11.9 µM in the test with OVCAR-5 ovarian; 13.5 µM in the test on SK-MEL-5 melanoma. Also, the TGI in the test with SR leukemia came out at 15.4 µM; in the test on UACC-62 melanoma, 12.8 µM.

For `N#CCCN(CCC#N)c1ccc(/C=C2\N=C(COc3ccc(Cl)cc3Cl)OC2=O)cc1`, the TGI with CAKI-1 renal, in the test on HL-60(TB) leukemia, with LXFL 529 NSCLC, in the test on M19-MEL melanoma, with OVCAR-5 ovarian and in the test with SK-MEL-5 melanoma was > 100 µM each time. In addition, in the test on UACC-62 melanoma, the TGI is > 100 µM.

Regarding `C=C(C)C(=O)OC1CC2(C)OC2CC(OC(C)=O)/C(C)=C/C2OC(=O)C(=C)C21` (stereo not given), the TGI in the test on CAKI-1 renal came to 9.84 µM; in the test with HL-60(TB) leukemia, 1.14 µM; with MCF7 breast, 12.2 µM; in the test with MDA-MB-231 breast, 18.5 µM; in the test with OVCAR-5 ovarian it was 17.5 µM; in the test on SK-MEL-5 melanoma, 21.1 µM. Moreover, the TGI with SR leukemia is 4.47 µM; with UACC-62 melanoma, 17.8 µM.

In the case of `O=c1[nH]c(=O)n(C2CC(O)C(CO)O2)cc1C(OCC(F)(F)F)OCC(F)(F)F` (stereo not given), the TGI in the test with CAKI-1 renal, in the test on HL-60(TB) leukemia, in the test on LXFL 529 NSCLC, with M19-MEL melanoma, in the test on OVCAR-5 ovarian and in the test with SK-MEL-5 melanoma was > 100 µM each time. For the same compound, the TGI with UACC-62 melanoma is > 100 µM.
